The source made the active and inactive calls.
Key:
BJ [1] = test: cytotoxicity toward Ras-transformed BJeLR fibroblasts, dose response, cell-based, alamar blue fluorescence, cherrypicked samples (AID 2631); type: functional; conditions: Homo sapiens;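 further: confirmatory dose-response assay in RAS-dependent BJ fibroblasts engineered with TERT, LT and ST, with cytotoxicity read by fluorescence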
[2] = inhibitors of SNCA 5'UTR-driven translation, confirmation, luminescence, H4 neuroglioblastoma cells, dose confirmation (AID 2454); type: functional, cell-based;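 further: H4 neuroglioblastoma cells carrying an alpha-synuclein 5'UTR luciferase reporter; potency for inhibition of the luciferase signal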
BJ [3] = test: cells; type: functional, cell-based; conditions: Homo sapiens
[4] = inhibitors of firefly luciferase expression or activity, dose response, H4 neuroglioma cells, luminescence (AID 1990); type: functional, cell-based
Paired box protein Pax-8 = Paired box protein Pax-8 (Homo sapiens, UniProt Q06710); test: inhibitors of PAX8-driven TPO luciferase reporter, dose response, RMG-I cells, cherry-pick (AID 687027); type: functional, cell-based;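 further: luciferase reporter driven by Pax8 target thyroperoxidase promoter measured by SteadyGlo luminescence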
[5] = inhibitors of SNCA 5'UTR-driven reporter translation, confirmation, H4 neuroglioma cells, luminescence (AID 1988); type: functional, cell-based
cells = type: functional, cell-based
[6] = Luminescence Cell-Based Dose Response HTS to Identify Inhibitors of 5'UTR Stem-Loop Driven Prion Protein mRNA Translation in H4 Neuroglioblastoma Cells. [Related pubchem assays: 1827 (Project Summary), 1813 (Primary HTS)]; type: functional
[7] = luciferase reporter signal reduction – luminescence, H4-C neuroglioblastoma cells, dose response (AID 2458); type: functional, cell-based;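 further: H4 neuroglioblastoma cells stably carrying a luciferase reporter gene fusion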
[8] = cytotoxicity toward DRD oncogenic fibroblasts, dose response, cell-based, non-viral oncogenic, luminescence (AID 1934); type: functional; conditions: Homo sapiens
[9] = non-specific cell cytotoxicity, dose response, cytotoxicity control for PAX8 inhibitor project, plate reader, dry powder samples (AID 743021); type: functional, cell-based
Beta-galactosidase = Beta-galactosidase (Escherichia coli, UniProt Q8VNN2); test: PubChem AID 485352; type: functional
[10] = biological target: Type-1 angiotensin II receptor (Homo sapiens, UniProt P30556); test: AT1 receptor antagonists, dose response, selectivity assay for APJ receptor antagonist project, cell-based, uHTS hits (AID 463214); type: functional;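 further: antagonist potency against angiotensin II stimulated AT1 response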
[11] = biological target: T1, Endoribonuclease toxin MazF (Escherichia coli K-12, UniProt P0AE70); test: MazF toxin RNase activators, dose response, biochemical, fluorescence, single-stranded RNA substrate, uHTS hits (AID 588481); type: functional
T1 sequence (P0AE70 whole entry): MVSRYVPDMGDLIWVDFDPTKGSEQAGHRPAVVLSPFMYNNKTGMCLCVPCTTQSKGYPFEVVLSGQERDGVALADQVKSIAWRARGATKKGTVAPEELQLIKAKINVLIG

[12] = biological target: T1, Endoribonuclease toxin MazF; test: MazF endoribonuclease activators, SAR follow-up, biochemical, fluorescence, single-stranded RNA substrate (AID 588603); type: functional
[13] = biological target: T1, Endoribonuclease toxin MazF; test: fluorescent RNA oligo signal without MazF, dose response, counter-screen for MazEF activator project, biochemical, fluorescence, single-stranded RNase substrate (AID 588502); type: functional
[14] = biological target: T1, Endoribonuclease toxin MazF; test: SAR analysis of small molecule activators of the MazEF TA System via a fluorescence-based single-stranded RNase assay counterscreen. [Related pubchem assays (depositor defined):AID504720, AID504743]; type: functional
MEF = test: SAR analysis of small molecule cytotoxicity of MazEF TA System activators in embryonic fibroblast (MEF) cells. [Related pubchem assays (depositor defined):AID504720, AID504743]; type: functional; conditions: Mus musculus
[15] = (§1) Counterscreen for antagonists of the orexin 1 receptor (OX1R; HCRTR1): Fluorescence-based cell-based high throughput dose response assay to identify antagonists of the parental CHO cell line. [Related pubchem assays (depositor defined):AID434989, AID435008, AID463079, AID485270, AID492963, AID492964, AID492965, AID493232, AID504699, AID504701]; type: functional
Orexin receptor type 2 [16] = biological target: T2, Orexin receptor type 2 (Homo sapiens, UniProt O43614); test: Counterscreen assay for antagonists of the orexin 1 receptor (OX1R; HCRTR1): Homogeneous Time Resolved Fluorescence (HTRF)-based cell-based dose response assay for antagonists of the orexin 2 receptor (OX2R; HCRTR2), run by assay provider.; type: functional
T2 sequence (O43614 whole entry): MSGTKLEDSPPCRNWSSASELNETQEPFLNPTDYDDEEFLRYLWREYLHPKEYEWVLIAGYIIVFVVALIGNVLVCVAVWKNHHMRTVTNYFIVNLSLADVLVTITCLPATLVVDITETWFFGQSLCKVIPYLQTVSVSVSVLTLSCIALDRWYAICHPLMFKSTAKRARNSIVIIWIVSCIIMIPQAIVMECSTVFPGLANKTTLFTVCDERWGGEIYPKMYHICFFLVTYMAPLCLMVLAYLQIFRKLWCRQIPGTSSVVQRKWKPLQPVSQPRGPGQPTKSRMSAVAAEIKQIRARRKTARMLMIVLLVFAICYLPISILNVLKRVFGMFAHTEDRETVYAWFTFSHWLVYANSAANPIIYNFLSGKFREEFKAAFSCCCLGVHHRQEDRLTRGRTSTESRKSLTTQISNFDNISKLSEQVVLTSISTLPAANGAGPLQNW

[17] = biological target: T3, Orexin/Hypocretin receptor type 1 (Homo sapiens, UniProt O43613); test: Homogeneous Time Resolved Fluorescence (HTRF)-based cell-based high throughput dose response assay for antagonists of the orexin 1 receptor (OX1R; HCRTR1). [Related pubchem assays (depositor defined):AID434989, AID435008, AID463079, AID485270, AID492963, AID492964, AID492965, AID493232, AID504717, AID504718]; type: functional
T3 sequence (O43613 whole entry): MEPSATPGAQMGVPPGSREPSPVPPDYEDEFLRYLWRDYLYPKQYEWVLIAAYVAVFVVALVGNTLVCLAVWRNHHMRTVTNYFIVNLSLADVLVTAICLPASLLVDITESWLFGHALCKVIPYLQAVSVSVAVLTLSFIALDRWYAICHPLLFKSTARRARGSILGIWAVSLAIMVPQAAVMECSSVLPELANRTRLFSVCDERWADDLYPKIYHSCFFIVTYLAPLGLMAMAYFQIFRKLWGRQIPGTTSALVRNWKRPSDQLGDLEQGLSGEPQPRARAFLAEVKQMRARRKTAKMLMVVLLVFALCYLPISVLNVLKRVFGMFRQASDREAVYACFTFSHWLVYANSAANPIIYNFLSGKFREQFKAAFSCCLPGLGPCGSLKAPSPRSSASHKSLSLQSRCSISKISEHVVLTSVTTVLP

[18] = biological target: T3, Orexin/Hypocretin receptor type 1; test: Fluorescence-based cell-based high throughput dose response assay for antagonists of the orexin 1 receptor (OX1R; HCRTR1). [Related pubchem assays (depositor defined):AID434989, AID435008, AID463079, AID485270, AID492963, AID492964, AID492965, AID493232, AID504717, AID504718]; type: functional
Orexin receptor type 2 [19] = biological target: T2, Orexin receptor type 2; test: Counterscreen assay for antagonists of the orexin 1 receptor (OX1R; HCRTR1): Fluorescence-based cell-based dose response assay for antagonists of the orexin 2 receptor (OX2R; HCRTR2), run by assay provider.; type: functional
CHO-K1 = test: as §1, with “Homogeneous time resolved fluorescence (HTRF)-based” for “Fluorescence-based”, “cell-based” for “cell-based high throughput”, “CHO-K1” for “CHO”; type: functional; conditions: Cricetulus griseus;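 further: potency for inhibition of ATP-stimulated IP1 production as antagonists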
BJ [20] = test: cytotoxicity toward BJ-TERT fibroblasts, dose response, cell-based, RAS-independent, luminescence (AID 1933); type: functional; conditions: Homo sapiens
BJ [21] = test: cytotoxicity toward BJ-TERT-LT-ST fibroblasts, dose response, cell-based, RAS-independent, luminescence (AID 1935); type: functional; conditions: Homo sapiens;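 further: BJ fibroblasts immortalized with TERT plus LT and ST oncogenes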
Phospholipase D1 = Phospholipase D1 (Homo sapiens, UniProt Q13393); test: PLD1 inhibitor potency in cells, dose response (AID 602151); type: functional;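 further: cellular PLD1 assay in Calu-1 cells stimulated with PMA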
Phospholipase D2 = Phospholipase D2 (Homo sapiens, UniProt O14939); test: PLD2 inhibitor potency in cells, dose response (AID 602147); type: functional;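 further: cellular assay in HEK293 cells overexpressing GFP-tagged PLD2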
[22] = microbe, parasite or virus in culture; type: functional; conditions: Mycobacterium tuberculosis

Chain of Phospholipase D1 (Q13393 whole entry): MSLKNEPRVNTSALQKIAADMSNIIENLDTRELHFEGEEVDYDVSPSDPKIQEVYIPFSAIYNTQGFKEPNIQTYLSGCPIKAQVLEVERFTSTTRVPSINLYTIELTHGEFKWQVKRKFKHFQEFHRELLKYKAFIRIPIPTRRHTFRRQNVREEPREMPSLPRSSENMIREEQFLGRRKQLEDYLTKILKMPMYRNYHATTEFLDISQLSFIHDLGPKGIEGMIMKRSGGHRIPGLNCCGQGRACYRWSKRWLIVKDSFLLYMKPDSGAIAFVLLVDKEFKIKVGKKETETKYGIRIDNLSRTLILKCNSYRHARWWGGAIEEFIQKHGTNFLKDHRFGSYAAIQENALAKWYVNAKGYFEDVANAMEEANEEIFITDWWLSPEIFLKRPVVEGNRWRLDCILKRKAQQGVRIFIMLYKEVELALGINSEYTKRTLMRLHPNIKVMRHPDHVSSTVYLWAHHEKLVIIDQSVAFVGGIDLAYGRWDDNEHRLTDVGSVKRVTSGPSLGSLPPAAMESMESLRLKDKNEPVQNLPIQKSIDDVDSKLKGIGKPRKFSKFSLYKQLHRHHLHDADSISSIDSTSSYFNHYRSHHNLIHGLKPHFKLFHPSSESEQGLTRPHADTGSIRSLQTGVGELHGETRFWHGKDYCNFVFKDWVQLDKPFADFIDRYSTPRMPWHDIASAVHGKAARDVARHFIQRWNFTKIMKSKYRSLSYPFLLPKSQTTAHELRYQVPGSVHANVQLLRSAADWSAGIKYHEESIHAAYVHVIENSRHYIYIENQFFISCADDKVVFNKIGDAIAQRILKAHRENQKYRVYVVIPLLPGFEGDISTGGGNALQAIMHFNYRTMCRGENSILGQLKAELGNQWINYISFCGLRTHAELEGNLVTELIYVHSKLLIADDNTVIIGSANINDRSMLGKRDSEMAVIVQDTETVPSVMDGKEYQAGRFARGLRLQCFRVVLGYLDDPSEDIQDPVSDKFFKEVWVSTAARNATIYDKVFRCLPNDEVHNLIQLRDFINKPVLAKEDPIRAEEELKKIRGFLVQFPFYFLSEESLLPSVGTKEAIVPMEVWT
Chain of Beta-galactosidase (Q8VNN2 whole entry): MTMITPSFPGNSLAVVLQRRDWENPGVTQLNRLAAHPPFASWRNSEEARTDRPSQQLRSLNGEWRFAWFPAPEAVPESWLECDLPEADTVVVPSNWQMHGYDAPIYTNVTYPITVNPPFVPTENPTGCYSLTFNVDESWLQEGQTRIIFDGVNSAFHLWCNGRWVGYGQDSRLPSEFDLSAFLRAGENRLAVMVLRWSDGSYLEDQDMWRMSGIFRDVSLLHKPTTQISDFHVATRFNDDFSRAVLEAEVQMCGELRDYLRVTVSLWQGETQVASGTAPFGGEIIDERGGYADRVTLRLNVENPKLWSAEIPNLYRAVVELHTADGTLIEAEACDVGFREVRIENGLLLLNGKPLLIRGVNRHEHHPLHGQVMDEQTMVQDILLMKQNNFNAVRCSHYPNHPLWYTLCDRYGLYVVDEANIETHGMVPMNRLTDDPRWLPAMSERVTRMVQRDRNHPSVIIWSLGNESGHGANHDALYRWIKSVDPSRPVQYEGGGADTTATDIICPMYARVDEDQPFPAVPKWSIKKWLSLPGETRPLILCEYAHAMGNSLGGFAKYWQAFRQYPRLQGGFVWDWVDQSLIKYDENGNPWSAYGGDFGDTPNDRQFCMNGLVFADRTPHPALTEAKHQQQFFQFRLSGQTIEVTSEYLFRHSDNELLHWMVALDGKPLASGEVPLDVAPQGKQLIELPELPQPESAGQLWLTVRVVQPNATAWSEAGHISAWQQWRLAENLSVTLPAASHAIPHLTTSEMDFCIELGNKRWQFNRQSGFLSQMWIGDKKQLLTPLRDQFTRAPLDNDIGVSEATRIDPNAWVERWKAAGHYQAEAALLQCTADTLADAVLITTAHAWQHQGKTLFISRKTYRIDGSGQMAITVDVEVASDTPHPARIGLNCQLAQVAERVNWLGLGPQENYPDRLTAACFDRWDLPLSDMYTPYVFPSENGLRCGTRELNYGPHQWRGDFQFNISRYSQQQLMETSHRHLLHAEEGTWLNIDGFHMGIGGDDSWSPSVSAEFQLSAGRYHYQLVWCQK
Chain of Type-1 angiotensin II receptor (P30556 whole entry): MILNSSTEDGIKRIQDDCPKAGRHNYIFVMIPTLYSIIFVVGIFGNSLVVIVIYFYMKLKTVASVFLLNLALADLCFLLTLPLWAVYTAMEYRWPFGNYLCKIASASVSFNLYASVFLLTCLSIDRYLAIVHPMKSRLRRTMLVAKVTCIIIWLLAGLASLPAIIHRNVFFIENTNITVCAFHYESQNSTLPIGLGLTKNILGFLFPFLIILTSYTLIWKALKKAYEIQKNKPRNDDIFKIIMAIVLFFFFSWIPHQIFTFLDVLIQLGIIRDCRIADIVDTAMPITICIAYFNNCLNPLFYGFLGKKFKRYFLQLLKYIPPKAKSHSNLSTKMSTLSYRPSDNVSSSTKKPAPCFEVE
Chain of Phospholipase D2 (O14939 whole entry): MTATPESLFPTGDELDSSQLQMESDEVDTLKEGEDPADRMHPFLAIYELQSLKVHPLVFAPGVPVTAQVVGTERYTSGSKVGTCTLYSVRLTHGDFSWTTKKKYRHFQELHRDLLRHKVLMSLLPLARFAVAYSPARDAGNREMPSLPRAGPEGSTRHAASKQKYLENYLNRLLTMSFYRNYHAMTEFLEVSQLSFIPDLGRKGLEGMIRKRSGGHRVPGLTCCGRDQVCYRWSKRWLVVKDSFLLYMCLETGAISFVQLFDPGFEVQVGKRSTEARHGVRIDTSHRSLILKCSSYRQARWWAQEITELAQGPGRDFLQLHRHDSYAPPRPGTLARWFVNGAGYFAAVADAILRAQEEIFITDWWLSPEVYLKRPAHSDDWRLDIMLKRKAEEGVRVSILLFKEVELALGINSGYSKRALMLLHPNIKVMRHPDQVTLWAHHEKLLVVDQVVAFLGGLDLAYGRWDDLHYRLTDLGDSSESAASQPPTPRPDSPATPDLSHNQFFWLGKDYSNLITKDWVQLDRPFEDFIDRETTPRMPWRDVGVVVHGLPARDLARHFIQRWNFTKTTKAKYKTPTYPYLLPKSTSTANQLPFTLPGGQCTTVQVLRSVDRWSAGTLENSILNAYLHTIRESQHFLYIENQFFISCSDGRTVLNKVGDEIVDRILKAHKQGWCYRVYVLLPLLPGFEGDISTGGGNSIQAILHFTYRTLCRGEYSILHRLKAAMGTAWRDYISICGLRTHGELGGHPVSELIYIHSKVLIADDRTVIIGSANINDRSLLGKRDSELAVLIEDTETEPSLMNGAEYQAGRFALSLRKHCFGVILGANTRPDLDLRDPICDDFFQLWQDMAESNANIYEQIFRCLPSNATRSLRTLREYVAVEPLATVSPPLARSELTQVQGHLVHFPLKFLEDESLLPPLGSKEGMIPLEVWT
Chain of Paired box protein Pax-8 (Q06710 whole entry): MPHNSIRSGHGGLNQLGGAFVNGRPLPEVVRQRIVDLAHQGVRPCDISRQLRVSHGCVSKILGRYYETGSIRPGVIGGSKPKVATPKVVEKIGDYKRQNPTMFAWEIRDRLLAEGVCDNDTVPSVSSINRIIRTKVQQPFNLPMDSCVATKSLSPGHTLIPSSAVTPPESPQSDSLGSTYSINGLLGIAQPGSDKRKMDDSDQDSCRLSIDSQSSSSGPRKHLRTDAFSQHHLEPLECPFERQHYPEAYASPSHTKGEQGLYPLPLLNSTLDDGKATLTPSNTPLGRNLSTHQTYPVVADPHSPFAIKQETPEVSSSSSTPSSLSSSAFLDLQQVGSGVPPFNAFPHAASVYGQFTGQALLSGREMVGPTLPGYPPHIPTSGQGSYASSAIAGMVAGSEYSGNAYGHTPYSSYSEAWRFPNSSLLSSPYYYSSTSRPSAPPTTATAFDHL

With `CCOc1ccc(C2=Nn3c(nnc3-c3ccccc3OC)SC2)cc1` the EC50 (BJ [1]) was < 0.104 µM (active), the EC50 [2] was 40 nM (active) and the EC50 (BJ [3]) was < 0.12 µM (active). The EC50 [4] was < 100 nM (active), the AC50 (Paired box protein Pax-8) was 317 nM (active) and the EC50 [5] was < 100 nM (active). For the same molecule, the EC50 (cells) was 46 nM (active), the EC50 [6] was < 100 nM (active) and the EC50 [7] was 34 nM (active). For the same molecule, the EC50 [8] was < 0.12 µM (active) and the AC50 [9] was 63 µM (active).

With `O=C1NC[C@H](c2ccccc2)OC(=O)[C@@H](Cc2ccc(F)cc2)CC/C=C/C[C@@H]1CC(=O)N(CCO)Cc1ccccc1` the EC50 (Beta-galactosidase) was 19.5 µM (active) and the IC50 [10] was 33.7 µM (not active).

With `Cc1c(C(=O)Oc2cc(N)n(S(C)(=O)=O)n2)cccc1[N+](=O)[O-]` the EC50 [11] was 5.59 µM (active), the EC50 [12] was 6.63 µM (active) and the EC50 [13] was > 99 µM (inactive). The EC50 [14] was > 99 µM (inactive) and the CC50 (MEF) was > 99 µM (inactive).

In the case of `CSc1cccc(NC(=O)C2CCCN(S(=O)(=O)c3cccs3)C2)c1` (configuration not stated), the IC50 [15] is reported as > 49.7 µM (inactive), the IC50 (Orexin receptor type 2 [16]) is reported as > 50 µM (inactive) and the IC50 [17] is reported as 546 nM (active). For the same molecule, the IC50 [18] was 6.4 µM (active), the IC50 (Orexin receptor type 2 [19]) was 5.3 µM (active) and the IC50 (CHO-K1) was > 66.2 µM (inactive).

For `CC(=O)c1ccc(NC(=O)N2CCc3ccccc3C2)cc1`, the EC50 (BJ [1]) was 6.04 µM (active), the EC50 (BJ [3]) was 10.5 µM (active) and the EC50 (BJ [20]) was > 150 µM (not active). The EC50 [8] was > 150 µM (not active) and the EC50 (BJ [21]) was > 150 µM (not active).

For `Cn1c2ccccc2c(=O)c2cc(C#Cc3cccc(N)c3)ccc21`, the IC50 [15] was > 49.8 µM (inactive), the IC50 (Orexin receptor type 2 [16]) was 0.07 µM (active) and the IC50 [17] was 1500 nM (active). For the same molecule, the IC50 [18] was 1.69 µM (active), the IC50 (Orexin receptor type 2 [19]) was > 88.8 µM (inactive) and the IC50 (CHO-K1) was > 66.3 µM (inactive).

With `Cc1ccc(C(=O)N[C@@H](C)CN2CCC(n3c(=O)[nH]c4cc(Br)ccc43)CC2)cc1` the IC50 (Phospholipase D1) was 7 nM (active) and the IC50 (Phospholipase D2) was 2.8 µM (active).

With `C[C@@H](CN1CC=C(n2c(=O)[nH]c3ccccc32)CC1)NC(=O)[C@H]1C[C@@H]1c1ccccc1` the IC50 (Phospholipase D1) was 480 nM (active) and the IC50 (Phospholipase D2) was 20 µM (active).

With `CC1CC2=C(CC1/C=N/NC(N)=S)C(C)(C)CCC2` (configuration not stated) the EC50 (Beta-galactosidase) was > 40 µM (inactive), the CC50 [22] was 20.9 µM (active) and the IC50 [10] was 22.6 µM (not active).
